PubChem BioAssay (NCI)
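Cultured in 96-well plates, cells were exposed to test compound for 48 hours across five concentrations. TGI: concentration producing complete growth inhibition.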

Columns and labels:
Assay in all cases: NCI anticancer screen, dose series, 48 h
[1] = tested on: SK-MEL-28 melanoma
[2] = tested on: LOX IMVI melanoma
[3] = tested on: OVCAR-5 ovarian
[4] = tested on: HCC-2998 colon
[5] = tested on: HOP-92 NSCLC
[6] = tested on: NCI-H460 lung
[7] = tested on: HT29 colon
[8] = tested on: MDA-MB-231 breast
[9] = tested on: 786-0 renal
[10] = tested on: MCF7 breast
[11] = tested on: K-562 leukemia
[12] = tested on: M14 melanoma
[13] = tested on: SNB-19 CNS
[14] = tested on: OVCAR-4 ovarian
[15] = tested on: NCI-H226 lung
[16] = tested on: COLO 205 colon
[17] = tested on: CCRF-CEM leukemia
[18] = tested on: EKVX NSCLC
[19] = tested on: HCT-15 colon
[20] = tested on: TK-10 renal
[21] = tested on: RXF 393 renal
[22] = tested on: T-47D breast
[23] = tested on: NCI/ADR-RES ovarian
[24] = tested on: MDA-N
[25] = tested on: UO-31 renal
[26] = tested on: SK-MEL-5 melanoma
[27] = tested on: OVCAR-8 ovarian
[28] = tested on: SR leukemia
[29] = tested on: A498 renal
[30] = tested on: KM12 colon
[31] = tested on: MALME-3M melanoma
[32] = tested on: IGROV1 ovarian
[33] = tested on: SK-MEL-2 melanoma
[34] = tested on: MOLT-4 leukemia
[35] = tested on: PC-3 prostate
[36] = tested on: NCI-H23 lung
[37] = tested on: DU-145 prostate
[38] = tested on: HL-60(TB) leukemia
[39] = tested on: SK-OV-3 ovarian
[40] = tested on: UACC-257 melanoma
[41] = tested on: MDA-MB-435
[42] = tested on: BT-549 breast
[43] = tested on: OVCAR-3 ovarian
[44] = tested on: SN12C renal
[45] = tested on: SF-539 CNS
[46] = tested on: SF-268 CNS
[47] = tested on: ACHN renal
[48] = tested on: NCI-H522 lung
[49] = tested on: SNB-75 CNS
[50] = tested on: RPMI-8226 leukemia
[51] = tested on: CAKI-1 renal
[52] = tested on: HCT-116 colon
[53] = tested on: U251 CNS
[54] = tested on: UACC-62 melanoma
[55] = tested on: HOP-62 NSCLC
[56] = tested on: SW-620 colon
[57] = tested on: HS 578T breast
[58] = tested on: A549 NSCLC
[59] = tested on: SF-295 CNS

## CCOc1ccc(Nc2nc(N)nc(N)c2N=O)cc1
[1]
  TGI: > 100 µM
[2]
  TGI: > 100 µM
[3]
  TGI: > 100 µM
[4]
  TGI: > 100 µM
[5]
  TGI: 62.8 µM
[6]
  TGI: > 100 µM
[7]
  TGI: > 100 µM
[8]
  TGI: > 100 µM
[9]
  TGI: > 100 µM
[10]
  TGI: > 100 µM
[11]
  TGI: > 100 µM
[12]
  TGI: > 100 µM
[13]
  TGI: > 100 µM
[14]
  TGI: > 100 µM
[15]
  TGI: > 100 µM
[16]
  TGI: > 100 µM
[17]
  TGI: > 100 µM
[18]
  TGI: > 100 µM
[19]
  TGI: > 100 µM
[20]
  TGI: > 100 µM
[21]
  TGI: > 100 µM
[22]
  TGI: > 100 µM
[23]
  TGI: > 100 µM
[24]
  TGI: > 100 µM
[25]
  TGI: 83.3 µM
[26]
  TGI: > 100 µM
[27]
  TGI: > 100 µM
[28]
  TGI: > 100 µM
[29]
  TGI: > 100 µM
[30]
  TGI: > 100 µM
[31]
  TGI: > 100 µM
[32]
  TGI: 33.4 µM
[33]
  TGI: > 100 µM
[34]
  TGI: 76.6 µM
[35]
  TGI: > 100 µM
[36]
  TGI: > 100 µM
[37]
  TGI: > 100 µM
[38]
  TGI: > 100 µM
[39]
  TGI: > 100 µM
[40]
  TGI: > 100 µM
[41]
  TGI: > 100 µM
[42]
  TGI: > 100 µM
[43]
  TGI: > 100 µM
[44]
  TGI: > 100 µM
[45]
  TGI: > 100 µM
[46]
  TGI: > 100 µM
[47]
  TGI: > 100 µM
[48]
  TGI: > 100 µM
[49]
  TGI: 91.7 µM
[50]
  TGI: > 100 µM
[51]
  TGI: 38.5 µM
[52]
  TGI: > 100 µM
[53]
  TGI: > 100 µM
[54]
  TGI: > 100 µM
[55]
  TGI: > 100 µM
[56]
  TGI: > 100 µM
[57]
  TGI: > 100 µM
[58]
  TGI: > 100 µM
[59]
  TGI: > 100 µM

## Nc1ncnc2c1ncn2CCCNO
[1]
  TGI: > 100 µM
[2]
  TGI: > 100 µM
[3]
  TGI: > 100 µM
[4]
  TGI: > 100 µM
[5]
  TGI: > 100 µM
[6]
  TGI: > 100 µM
[7]
  TGI: > 100 µM
[8]
  TGI: > 100 µM
[9]
  TGI: > 100 µM
[10]
  TGI: > 100 µM
[11]
  TGI: > 100 µM
[12]
  TGI: > 100 µM
[13]
  TGI: > 100 µM
[14]
  TGI: > 100 µM
[15]
  TGI: > 100 µM
[16]
  TGI: > 100 µM
[17]
  TGI: > 100 µM
[18]
  TGI: > 100 µM
[19]
  TGI: > 100 µM
[20]
  TGI: > 100 µM
[21]
  TGI: > 100 µM
[22]
  TGI: > 100 µM
[23]
  TGI: > 100 µM
[24]
  TGI: > 100 µM
[25]
  TGI: > 100 µM
[26]
  TGI: > 100 µM
[27]
  TGI: > 100 µM
[28]
  TGI: > 100 µM
[29]
  TGI: > 100 µM
[30]
  TGI: > 100 µM
[31]
  TGI: > 100 µM
[32]
  TGI: > 100 µM
[33]
  TGI: > 100 µM
[34]
  TGI: > 100 µM
[35]
  TGI: > 100 µM
[36]
  TGI: > 100 µM
[37]
  TGI: > 100 µM
[38]
  TGI: > 100 µM
[39]
  TGI: > 100 µM
[40]
  TGI: > 100 µM
[41]
  TGI: > 100 µM
[42]
  TGI: > 100 µM
[43]
  TGI: > 100 µM
[44]
  TGI: > 100 µM
[45]
  TGI: > 100 µM
[46]
  TGI: > 100 µM
[47]
  TGI: > 100 µM
[48]
  TGI: > 100 µM
[49]
  TGI: > 100 µM
[50]
  TGI: > 100 µM
[51]
  TGI: > 100 µM
[52]
  TGI: > 100 µM
[53]
  TGI: > 100 µM
[54]
  TGI: > 100 µM
[55]
  TGI: > 100 µM
[56]
  TGI: > 100 µM
[57]
  TGI: > 100 µM
[58]
  TGI: > 100 µM
[59]
  TGI: > 100 µM
